Results on two compounds are retold here after patent US8198273B2, “Compounds and methods for kinase modulation, and indications therefor” (Plexxikon Inc., priority 2009, dated 2012).

The target of data set [1] is CYP2C9 (Homo sapiens, UniProt P11712). Briefly: CYP2C9 inhibition (fluorescent substrate). The data set is classed as in vitro ADME. Conditions: CYP2C9, MFC substrate; read-out: Cyp IC50 2C9. Put shortly: (§1)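 First, 100 mM DMSO stocks are diluted into acetonitrile, then twofold through co-factor mix for 10 points. Next, mixtures are preincubated 10 min at 37 °C.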
Data set [2] concerns the target B-Raf V600E (Homo sapiens, UniProt P15056, V600E). The data set can be described thus: B-Raf V600E biochemical kinase inhibition (AlphaScreen, biotin-MEK1 substrate). The conditions noted are these: 100 μM ATP. Summed up:
(§2)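 Serial 1:3 dilutions of compound (0.1 mM DMSO stock, eight points) were added first, then ATP to start the reaction at 100 μM final.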
For orientation: Bead proximity is the source of the signal in Alpha formats.

Data set [3] is described as follows: Relative solubility by turbidity in aqueous buffers of varying pH. It is filed as physicochemical. The conditions noted are these: for turbidity threshold (L, M, H) 7.4: HEPES pH 7.4; for turbidity threshold (L, M, H) 4.5: SIF pH 4.5; for turbidity threshold (L, M, H) 6.8: SIF pH 6.8; for turbidity threshold (L, M, H) 1.4: buffer pH 1.4 (SGF). Summed up: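 Turbidity endpoint: concentration where optical density at 490, 535 and 650 nm exceeds 0.01, three-wavelength average used. Buffers at pH 1.5, 4.5, 6.8 and 7.4; DMSO serial dilutions of 25 mM stock spiked 1 μL into 99 μL buffer. Low <31.3, moderate 31.3–250, high >250 μM.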

For data set [4], the target named is CYP2C19 (Homo sapiens, UniProt P33261). Briefly: CYP2C19 inhibition (fluorescent substrate). The conditions noted are these: CYP2C19, CEC substrate; read-out: Cyp IC50 2C19. The data set is classed as in vitro ADME. Put shortly:
as §1

Data set [5] concerns the target c-Raf-1 (Homo sapiens, UniProt P04049). Briefly: c-Raf-1 biochemical kinase inhibition (AlphaScreen, biotin-MEK1 substrate). Conditions: 100 μM ATP. Summed up: as §2
Data set [6] has as its system Colo205 xenograft. The data set can be described thus: Colo205 xenograft mouse model, tumor growth inhibition. It is filed as in vivo. The conditions noted are these: COLO 205, 336 h, female nu/nu mice, 10 mg/kg daily for fourteen days.
The target in data set [7] is T1, A-Raf (Homo sapiens, UniProt P10398).
T1 sequence (P10398 1-606): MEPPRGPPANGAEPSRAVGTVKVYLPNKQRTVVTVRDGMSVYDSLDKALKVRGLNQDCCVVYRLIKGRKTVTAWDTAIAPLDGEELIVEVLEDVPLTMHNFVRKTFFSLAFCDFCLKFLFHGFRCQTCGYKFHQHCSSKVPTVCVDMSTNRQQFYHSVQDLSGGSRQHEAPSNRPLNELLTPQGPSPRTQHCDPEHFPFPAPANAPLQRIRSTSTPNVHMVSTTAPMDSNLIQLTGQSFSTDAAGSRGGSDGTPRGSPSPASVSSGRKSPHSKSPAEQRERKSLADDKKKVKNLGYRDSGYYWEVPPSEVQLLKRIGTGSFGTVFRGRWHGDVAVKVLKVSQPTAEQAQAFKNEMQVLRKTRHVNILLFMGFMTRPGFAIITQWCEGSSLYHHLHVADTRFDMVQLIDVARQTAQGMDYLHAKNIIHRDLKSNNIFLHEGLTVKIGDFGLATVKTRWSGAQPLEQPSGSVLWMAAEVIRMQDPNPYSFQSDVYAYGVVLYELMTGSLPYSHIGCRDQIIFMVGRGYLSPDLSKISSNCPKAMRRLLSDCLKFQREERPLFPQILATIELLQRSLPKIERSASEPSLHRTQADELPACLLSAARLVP
The data set can be described thus: A-Raf biochemical kinase inhibition (AlphaScreen, biotin-MEK1 substrate). Conditions: 100 μM ATP. Summed up: as §2

Chain of CYP2C19 (P33261 whole entry): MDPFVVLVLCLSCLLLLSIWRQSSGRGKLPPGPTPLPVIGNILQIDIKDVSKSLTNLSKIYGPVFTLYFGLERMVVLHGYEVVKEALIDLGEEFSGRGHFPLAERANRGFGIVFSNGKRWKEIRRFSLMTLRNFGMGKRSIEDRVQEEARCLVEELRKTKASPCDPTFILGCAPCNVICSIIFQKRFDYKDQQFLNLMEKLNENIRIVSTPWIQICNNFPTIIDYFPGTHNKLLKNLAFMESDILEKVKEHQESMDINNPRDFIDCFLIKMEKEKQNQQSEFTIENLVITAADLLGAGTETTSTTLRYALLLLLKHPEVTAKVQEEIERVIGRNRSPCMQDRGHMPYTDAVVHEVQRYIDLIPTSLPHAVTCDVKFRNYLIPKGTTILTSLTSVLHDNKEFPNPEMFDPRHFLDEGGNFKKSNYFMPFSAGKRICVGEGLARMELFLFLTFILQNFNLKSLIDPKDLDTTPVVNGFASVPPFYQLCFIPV
Chain of B-Raf V600E (P15056 whole entry V600E): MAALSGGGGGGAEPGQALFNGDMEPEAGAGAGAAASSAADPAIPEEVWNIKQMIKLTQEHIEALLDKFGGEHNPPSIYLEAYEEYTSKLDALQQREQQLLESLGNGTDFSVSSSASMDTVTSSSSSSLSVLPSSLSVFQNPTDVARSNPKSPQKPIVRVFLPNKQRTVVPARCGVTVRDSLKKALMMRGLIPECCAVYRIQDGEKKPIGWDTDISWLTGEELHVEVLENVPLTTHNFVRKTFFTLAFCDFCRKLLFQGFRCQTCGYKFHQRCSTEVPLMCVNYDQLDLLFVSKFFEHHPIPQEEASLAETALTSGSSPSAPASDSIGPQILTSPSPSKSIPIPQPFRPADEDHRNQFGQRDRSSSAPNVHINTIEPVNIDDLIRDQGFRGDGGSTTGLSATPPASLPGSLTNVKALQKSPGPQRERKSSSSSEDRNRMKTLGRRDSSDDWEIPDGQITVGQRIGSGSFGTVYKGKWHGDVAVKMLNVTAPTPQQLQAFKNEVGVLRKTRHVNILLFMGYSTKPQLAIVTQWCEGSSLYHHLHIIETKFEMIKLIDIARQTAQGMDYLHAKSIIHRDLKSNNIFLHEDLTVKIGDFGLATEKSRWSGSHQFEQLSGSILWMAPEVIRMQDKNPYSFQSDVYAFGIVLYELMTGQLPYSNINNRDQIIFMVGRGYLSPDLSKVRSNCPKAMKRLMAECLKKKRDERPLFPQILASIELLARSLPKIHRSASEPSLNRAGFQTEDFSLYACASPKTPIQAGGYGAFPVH
Chain of CYP2C9 (P11712 whole entry): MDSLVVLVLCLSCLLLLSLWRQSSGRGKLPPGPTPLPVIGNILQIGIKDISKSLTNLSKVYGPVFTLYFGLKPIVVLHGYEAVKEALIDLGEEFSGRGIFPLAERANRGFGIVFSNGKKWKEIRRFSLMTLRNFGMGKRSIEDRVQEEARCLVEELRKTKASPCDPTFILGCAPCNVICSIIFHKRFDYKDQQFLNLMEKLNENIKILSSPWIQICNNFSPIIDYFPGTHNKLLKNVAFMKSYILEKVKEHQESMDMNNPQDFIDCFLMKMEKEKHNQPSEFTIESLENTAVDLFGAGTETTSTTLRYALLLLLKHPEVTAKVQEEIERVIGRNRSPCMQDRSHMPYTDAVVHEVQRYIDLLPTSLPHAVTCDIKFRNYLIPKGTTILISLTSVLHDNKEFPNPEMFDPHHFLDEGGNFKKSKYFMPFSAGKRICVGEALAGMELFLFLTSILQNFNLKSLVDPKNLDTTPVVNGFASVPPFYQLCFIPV
Chain of c-Raf-1 (P04049 whole entry): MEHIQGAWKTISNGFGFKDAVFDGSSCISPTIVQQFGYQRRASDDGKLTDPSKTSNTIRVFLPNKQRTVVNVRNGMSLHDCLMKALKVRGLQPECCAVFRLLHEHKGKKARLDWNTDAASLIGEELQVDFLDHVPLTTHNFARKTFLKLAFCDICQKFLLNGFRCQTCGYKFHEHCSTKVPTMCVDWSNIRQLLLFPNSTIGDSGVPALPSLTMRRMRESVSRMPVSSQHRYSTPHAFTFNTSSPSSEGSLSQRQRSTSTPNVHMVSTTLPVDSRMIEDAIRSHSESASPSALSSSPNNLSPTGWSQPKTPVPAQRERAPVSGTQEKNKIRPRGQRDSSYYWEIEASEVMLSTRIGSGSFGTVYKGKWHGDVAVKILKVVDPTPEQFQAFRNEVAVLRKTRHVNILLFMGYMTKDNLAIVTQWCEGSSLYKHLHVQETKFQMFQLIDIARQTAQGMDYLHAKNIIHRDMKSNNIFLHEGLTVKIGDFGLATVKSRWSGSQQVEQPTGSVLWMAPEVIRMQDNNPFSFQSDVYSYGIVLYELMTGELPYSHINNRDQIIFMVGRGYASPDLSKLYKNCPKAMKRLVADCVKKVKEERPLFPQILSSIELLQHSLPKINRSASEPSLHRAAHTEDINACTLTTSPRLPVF

The term IC50 denotes the concentration at which inhibition is half-maximal. By inhibition in vivo is commonly meant the relative decrease from the control value, in per cent. As to `CCCS(=O)(=O)Nc1ccc(F)c(C(=O)c2c[nH]c3ncc(C#CCOC)cc23)c1F` [P-2239, Propane-1-sulfonic acid {2,4-difluoro-3-[5-(3-methoxy-prop-1-ynyl)-1H-pyrrolo[2,3-b]pyridine-3-carbonyl]-phenyl}-amide], the IC50 in data set [1] was 5 to 10 µM; in data set [2], < 0.01 µM; in data set [4] it was 5 to 10 µM; in data set [5] it was < 0.01 µM; in data set [7], < 0.01 µM. In addition, the “turbidity threshold (L, M, H) 7.4” value in data set [3] is recorded as “M (moderate solubility if the threshold concentration is 31.3 μM to 250 μM)”. Besides, the “turbidity threshold (L, M, H) 4.5” value in data set [3] is reported as “M (moderate solubility if the threshold concentration is 31.3 μM to 250 μM)”. Further, in data set [3], the “turbidity threshold (L, M, H) 6.8” value was “L (low solubility if the threshold concentration is <31.3 04)”. In addition, the “turbidity threshold (L, M, H) 1.4” value in data set [3] is “L (low solubility if the threshold concentration is <31.3 04)”. At 10 mg/kg the inhibition in vivo in data set [6] was 4%.
Turning to `C#Cc1cnc2[nH]cc(C(=O)c3c(F)ccc(NS(=O)(=O)CCC)c3F)c2c1` [P-2260, Propane-1-sulfonic acid [3-(5-ethynyl-1H-pyrrolo[2,3-b]pyridine-3-carbonyl)-2,4-difluoro-phenyl]-amide], the IC50 in data set [1] is 5 to 10 µM; in data set [2], < 0.01 µM; in data set [4], 5 to 10 µM; in data set [5], < 0.01 µM; in data set [7], < 0.01 µM. Further, the “turbidity threshold (L, M, H) 7.4” value in data set [3] is “L (low solubility if the threshold concentration is <31.3 04)”. In addition, the “turbidity threshold (L, M, H) 4.5” value in data set [3] is recorded as “L (low solubility if the threshold concentration is <31.3 04)”. The “turbidity threshold (L, M, H) 6.8” value in data set [3] is on record as “L (low solubility if the threshold concentration is <31.3 04)”. Also, the “turbidity threshold (L, M, H) 1.4” value in data set [3] is given as “L (low solubility if the threshold concentration is <31.3 04)”. Besides, in data set [6], testing at 10 mg/kg gave an inhibition in vivo of 79%.
